Measurements published in patent US20250346585A1 (Alexion Pharmaceuticals, Inc., priority 2022, published 2025).

Molecular target: Human complement C1s enzyme (Homo sapiens (Human), UniProt P09871)
Assay: Human C1s enzyme assay
Format: biochemical
Settings: Human complement C1s enzyme 1.16 nM, substrate Z-L-Lys-SBzl 100 μM, assay of Example 3; read-out: IC50 (Stars)
Method in brief: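 Purified serum-derived human C1s (1.16 nM final) preincubated 5 min at room temperature with compound in 50 mM Tris, 1 M NaCl, pH 7.5. Z-L-Lys-SBzl thioester substrate and DTNB added (100 μM each, final); A405 read every 30 s for 30 min. IC50 from nonlinear regression of reaction rates against compound concentration.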

Sequence of Human complement C1s enzyme (P09871 438-688 limits assumed): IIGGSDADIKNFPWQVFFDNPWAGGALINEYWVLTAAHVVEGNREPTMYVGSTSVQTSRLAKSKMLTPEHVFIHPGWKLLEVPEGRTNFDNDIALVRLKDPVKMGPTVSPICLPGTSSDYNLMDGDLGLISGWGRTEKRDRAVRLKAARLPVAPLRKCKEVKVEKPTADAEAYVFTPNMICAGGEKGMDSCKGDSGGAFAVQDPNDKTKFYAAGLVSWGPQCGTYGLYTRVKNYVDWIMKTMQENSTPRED
Sequence of Human complement C1s enzyme (P09871 16-437 partner limits assumed): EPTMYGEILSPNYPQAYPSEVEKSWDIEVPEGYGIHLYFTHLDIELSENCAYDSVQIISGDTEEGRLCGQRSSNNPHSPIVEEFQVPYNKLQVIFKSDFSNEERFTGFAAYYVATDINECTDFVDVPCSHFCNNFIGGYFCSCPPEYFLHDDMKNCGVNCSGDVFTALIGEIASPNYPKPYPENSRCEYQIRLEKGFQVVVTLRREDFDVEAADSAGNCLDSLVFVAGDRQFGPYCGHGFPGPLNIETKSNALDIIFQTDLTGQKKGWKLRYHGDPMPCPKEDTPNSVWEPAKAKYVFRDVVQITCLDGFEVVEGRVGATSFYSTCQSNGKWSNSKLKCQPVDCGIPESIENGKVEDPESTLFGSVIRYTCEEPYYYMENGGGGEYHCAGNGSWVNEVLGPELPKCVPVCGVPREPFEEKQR

Row | IC50 [nM] | SMILES
1 | < 100 | N=C(N)c1csc(CNC(=O)[C@@H]2CC3(CN2C(=O)CNC(=O)c2ccc(-c4ccc(C(=O)O)cc4F)cc2)OCCO3)c1 [Compound 242, (S)-4′-((2-(8-(((4-carbamimidoylthiophen-2-yl)methyl)carbamoyl)-1,4-dioxa-7-azaspiro[4.4]nonan-7-yl)-2-oxoethyl)carbamoyl)-2-fluoro-[1,1′-biphenyl]-4-carboxylic acid]
2 | > 1000 | CO[C@@H]1C[C@@H](C(=O)NCc2cc(NC(=O)CNC(=O)c3ccc(Oc4ccc(F)cc4)cc3)cs2)N(C(=O)CNC(=O)c2ccc(Oc3ccc(F)cc3)cc2)C1 [Compound 243, (2S,4R)-N-((4-(2-(4-(4-fluorophenoxy)benzamido)acetamido)thiophen-2-yl)methyl)-1-((4-(4-fluorophenoxy)benzoyl)glycyl)-4-methoxypyrrolidine-2-carboxamide]
3 | < 100 | N=C(N)c1csc(CNC(=O)[C@@H]2CC3(CN2C(=O)CN2CCc4cc(-c5ccc(F)cc5F)ccc4C2=O)OCCO3)c1 [Compound 245, (S)—N-((4-carbamimidoylthiophen-2-yl)methyl)-7-(2-(6-(2,4-difluorophenyl)-1-oxo-3,4-dihydroisoquinolin-2(1H)-yl)acetyl)-1,4-dioxa-7-azaspiro[4.4]nonane-8-carboxamide]
4 | < 100 | COC(=O)/N=C(/N)c1csc([C@@H](C)NC(=O)[C@@H]2C[C@@H](OC(F)F)CN2C(=O)CNC(=O)c2ccc3c(c2)-c2ccccc2C3(F)F)c1 [Compound 247, methyl ((E)-amino(5-((R)-1-((2S,4R)-1-((9,9-difluoro-9H-fluorene-3-carbonyl)glycyl)-4-(difluoromethoxy)pyrrolidine-2-carboxamido)ethyl)thiophen-3-yl)methylene)carbamate]
5 | < 100 | N=C(N)c1csc(CCNC(=O)[C@@H]2CC3(CN2C(=O)CNC(=O)c2ccc4c(c2)-c2ccccc2C4(F)F)OCCO3)c1 [Compound 251, (S)—N-(2-(4-carbamimidoylthiophen-2-yl)ethyl)-7-((9,9-difluoro-9H-fluorene-3-carbonyl)glycyl)-1,4-dioxa-7-azaspiro[4.4]nonane-8-carboxamide]
6 | < 100 | C[C@@H](NC(=O)[C@@H]1C[C@@H]([S@@](C)(=N)=O)CN1C(=O)CNC(=O)c1ccc2c(c1)-c1ccccc1C2(F)F)c1cc(C(=N)N)cs1 [Compound 252, (2S,4R)—N—((R)-1-(4-carbamimidoylthiophen-2-yl)ethyl)-1-((9,9-difluoro-9H-fluorene-3-carbonyl)glycyl)-4-((S)—S-methylsulfonimidoyl)pyrrolidine-2-carboxamide]
7 | < 100 | C[C@@H](NC(=O)[C@@H]1CC2(CN1C(=O)CNC(=O)c1ccc3sc4ccccc4c3c1)OCCO2)c1cc(C(=N)N)cs1 [Compound 254, (S)—N—((R)-1-(4-carbamimidoylthiophen-2-yl)ethyl)-7-((dibenzo[b,d]thiophene-2-carbonyl)glycyl)-1,4-dioxa-7-azaspiro[4.4]nonane-8-carboxamide]
8 | < 100 | N=C(N)c1csc(CNC(=O)[C@@H]2CC3(CN2C(=O)CN2CCc4cc(-c5ccccc5)ccc4C2=O)OCCO3)c1 [Compound 256, (S)—N-((4-carbamimidoylthiophen-2-yl)methyl)-7-(2-(1-oxo-6-phenyl-3,4-dihydroisoquinolin-2(1H)-yl)acetyl)-1,4-dioxa-7-azaspiro[4.4]nonane-8-carboxamide]
9 | < 100 | Cc1ccc(-c2ccc(C(=O)NCC(=O)N3CC4(C[C@H]3C(=O)NCc3cc(C(=N)N)cs3)OCCO4)cc2)c(C)c1 [Compound 257, (S)—N-((4-carbamimidoylthiophen-2-yl)methyl)-7-((2′,4′-dimethyl-[1,1′-biphenyl]-4-carbonyl)glycyl)-1,4-dioxa-7-azaspiro[4.4]nonane-8-carboxamide]
10 | < 100 | CCCCCCOC(=O)/N=C(/N)c1csc([C@@H](C)NC(=O)[C@@H]2C[C@@H](OC(F)F)CN2C(=O)CNC(=O)c2ccc3c(c2)-c2ccccc2C3(F)F)c1 [Compound 258, hexyl ((E)-amino(5-((R)-1-((2S,4R)-1-((9,9-difluoro-9H-fluorene-3-carbonyl)glycyl)-4-(difluoromethoxy)pyrrolidine-2-carboxamido)ethyl)thiophen-3-yl)methylene)carbamate]
11 | < 100 | COC[C@@]1(F)C[C@@H](C(=O)N[C@H](C)c2cc(C(=N)N)cs2)N(C(=O)CNC(=O)c2ccc3c(c2)C(F)(F)c2ccccc2-3)C1 [Compound 264, (2S,4R)—N—((R)-1-(4-carbamimidoylthiophen-2-yl)ethyl)-1-((9,9-difluoro-9H-fluorene-2-carbonyl)glycyl)-4-fluoro-4-(methoxymethyl)pyrrolidine-2-carboxamide]

Second part, the compound before the results:

Row | SMILES | IC50 [nM]
12 | COc1cccc(F)c1-c1ccc(C(=O)NCC(=O)N2CC3(C[C@H]2C(=O)NCc2cc(C(=N)N)cs2)OCCO3)cc1 [Compound 241, (S)—N-((4-carbamimidoylthiophen-2-yl)methyl)-7-((2′-fluoro-6′-methoxy-[1,1′-biphenyl]-4-carbonyl)glycyl)-1,4-dioxa-7-azaspiro[4.4]nonane-8-carboxamide] | < 100
13 | Nc1csc(CNC(=O)[C@@H]2CC3(CN2C(=O)CNC(=O)c2ccc(Oc4ccc(F)cc4)cc2)OCCO3)c1 [Compound 244, (S)—N-((4-aminothiophen-2-yl)methyl)-7-((4-(4-fluorophenoxy)benzoyl)glycyl)-1,4-dioxa-7-azaspiro[4.4]nonane-8-carboxamide] | > 1000
14 | C[C@@H](NC(=O)[C@@H]1C[C@@H](Oc2ccccc2)CN1C(=O)CNC(=O)c1ccc2oc3ccccc3c2c1)c1cc(C(=N)N)cs1 [Compound 248, (2S,4R)—N—((R)-1-(4-carbamimidoylthiophen-2-yl)ethyl)-1-((dibenzo[b,d]furan-2-carbonyl)glycyl)-4-phenoxypyrrolidine-2-carboxamide] | < 100
15 | CCCCCCOC(=O)/N=C(/N)c1csc([C@@H](C)NC(=O)[C@@H]2C[C@](F)(COC)CN2C(=O)CNC(=O)c2ccc3c(c2)-c2ccccc2C3(F)F)c1 [Compound 249, hexyl ((E)-amino(5-((R)-1-((2S,4R)-1-((9,9-difluoro-9H-fluorene-3-carbonyl)glycyl)-4-fluoro-4-(methoxymethyl)pyrrolidine-2-carboxamido)ethyl)thiophen-3-yl)methylene)carbamate] | < 100
16 | COC(=O)/N=C(/N)c1csc([C@@H](C)NC(=O)[C@@H]2C[C@](F)(CF)CN2C(=O)CNC(=O)c2ccc3c(c2)-c2ccccc2C3(F)F)c1 [Compound 250, methyl ((E)-amino(5-((R)-1-((2S,4R)-1-((9,9-difluoro-9H-fluorene-3-carbonyl)glycyl)-4-fluoro-4-(fluoromethyl)pyrrolidine-2-carboxamido)ethyl)thiophen-3-yl)methylene)carbamate] | < 100
17 | CCCCCCOC(=O)/N=C(/N)c1csc([C@@H](C)NC(=O)[C@@H]2C[C@](F)(CF)CN2C(=O)CNC(=O)c2ccc3c(c2)-c2ccccc2C3(F)F)c1 [Compound 253, hexyl ((E)-amino(5-((R)-1-((2S,4R)-1-((9,9-difluoro-9H-fluorene-3-carbonyl)glycyl)-4-fluoro-4-(fluoromethyl)pyrrolidine-2-carboxamido)ethyl)thiophen-3-yl)methylene)carbamate] | < 100
18 | N=C(N)c1csc(CNC(=O)[C@@H]2CC3(CN2C(=O)CN2CCc4cc(-c5ccc(F)cc5)ccc4C2=O)OCCO3)c1 [Compound 255, (S)—N-((4-carbamimidoylthiophen-2-yl)methyl)-7-(2-(6-(4-fluorophenyl)-1-oxo-3,4-dihydroisoquinolin-2(1H)-yl)acetyl)-1,4-dioxa-7-azaspiro[4.4]nonane-8-carboxamide] | > 1000
19 | C[C@@]12C[C@@H]1N(C(=O)CNC(=O)c1ccc3c(c1)-c1ccccc1C3(F)F)[C@H](C(=O)Nc1cc(C(=N)N)cs1)C2 [Compound 259, (1S,3S,5S)—N-(4-carbamimidoylthiophen-2-yl)-2-((9,9-difluoro-9H-fluorene-3-carbonyl)glycyl)-5-methyl-2-azabicyclo[3.1.0]hexane-3-carboxamide] | > 1000
20 | C[C@@H](NC(=O)[C@@H]1C[C@](F)(Cn2ccnn2)CN1C(=O)CNC(=O)c1ccc2c(c1)-c1ccccc1C2(F)F)c1cc(C(=N)N)cs1 [Compound 260, (2S,4R)-4-((1H-1,2,3-triazol-1-yl)methyl)-N—((R)-1-(4-carbamimidoylthiophen-2-yl)ethyl)-1-((9,9-difluoro-9H-fluorene-3-carbonyl)glycyl)-4-fluoropyrrolidine-2-carboxamide] | < 100
21 | C[C@@H](NC(=O)[C@@H]1CC2(CN1C(=O)CNC(=O)c1ccc3c(c1)-c1ccccc1S3(=O)=O)OCCO2)c1cc(C(=N)N)cs1 [Compound 261, (S)—N—((R)-1-(4-carbamimidoylthiophen-2-yl)ethyl)-7-((5,5-dioxidodibenzo[b,d]thiophene-2-carbonyl)glycyl)-1,4-dioxa-7-azaspiro[4.4]nonane-8-carboxamide] | < 100
22 | C[C@@H](NC(=O)[C@@H]1C[C@@H](OC(F)F)CN1C(=O)CNC(=O)c1ccc2c(c1)C(F)(F)c1ccccc1-2)c1cc(C(=N)N)cs1 [Compound 262, (2S,4R)—N—((R)-1-(4-carbamimidoylthiophen-2-yl)ethyl)-1-((9,9-difluoro-9H-fluorene-2-carbonyl)glycyl)-4-(difluoromethoxy)pyrrolidine-2-carboxamide] | < 100
23 | C[C@@H](NC(=O)[C@@H]1C[C@](F)(CF)CN1C(=O)CNC(=O)c1ccc2c(c1)C(F)(F)c1ccccc1-2)c1cc(C(=N)N)cs1 [Compound 263, (2S,4R)—N—((R)-1-(4-carbamimidoylthiophen-2-yl)ethyl)-1-((9,9-difluoro-9H-fluorene-2-carbonyl)glycyl)-4-fluoro-4-(fluoromethyl)pyrrolidine-2-carboxamide] | < 100
